Read-outs that look alike come from different tables or passages of the source.
What was measured:
plasma proteins [1] = details: cited from earlier work
CYP3A4 = CYP3A4 (Homo sapiens, UniProt P08684); details: supersomes, 10 µM, at 60 min
[2] = tested on: cryopreserved pooled human primary hepatocytes
CYP2D6 = CYP2D6 (Homo sapiens, UniProt P10635); experiment: CYP screening of gefitinib and erlotinib with human pooled supersomes; type: in vitro ADME; details: 10 µM
plasma proteins [3] = experiment: Human plasma rapid equilibrium dialysis; type: in vitro ADME; details: pooled human plasma, 4 h of shaking, 10 µM, monitored drug alone
CYP1A2 = biological target: T1, CYP1A2 (Homo sapiens, UniProt P05177); experiment: CYP screening of gefitinib and erlotinib with human pooled supersomes; type: in vitro ADME; details: 10 µM, at 60 min
T1 sequence (P05177 1-516): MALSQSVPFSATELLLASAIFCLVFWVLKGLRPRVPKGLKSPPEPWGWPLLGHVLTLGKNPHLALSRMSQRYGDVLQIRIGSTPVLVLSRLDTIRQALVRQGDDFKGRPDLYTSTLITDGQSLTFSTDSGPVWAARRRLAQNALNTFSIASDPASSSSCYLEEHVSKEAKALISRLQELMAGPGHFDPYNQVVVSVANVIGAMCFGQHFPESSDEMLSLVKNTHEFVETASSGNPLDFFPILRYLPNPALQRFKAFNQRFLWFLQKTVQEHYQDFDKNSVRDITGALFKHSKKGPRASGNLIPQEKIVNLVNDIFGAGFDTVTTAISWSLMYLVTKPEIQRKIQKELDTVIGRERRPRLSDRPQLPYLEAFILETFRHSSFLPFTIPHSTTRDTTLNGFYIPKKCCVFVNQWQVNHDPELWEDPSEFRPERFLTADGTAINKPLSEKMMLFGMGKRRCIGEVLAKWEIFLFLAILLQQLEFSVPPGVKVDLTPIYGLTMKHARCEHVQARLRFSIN

[4] = 4 h, 10 µM each, monitored drug + Flx
[5] = 4 h, 10 µM each, monitored drug + Flx + Los
[6] = 4 h, 10 µM each, monitored drug + Los
[7] = 4 h incubation, 10 µM, monitored drug alone
[8] = 4 h, 10 µM each, monitored drug + Erl
[9] = 4 h, 10 µM each, monitored drug + Gef

Chain of CYP2D6 (P10635 whole entry): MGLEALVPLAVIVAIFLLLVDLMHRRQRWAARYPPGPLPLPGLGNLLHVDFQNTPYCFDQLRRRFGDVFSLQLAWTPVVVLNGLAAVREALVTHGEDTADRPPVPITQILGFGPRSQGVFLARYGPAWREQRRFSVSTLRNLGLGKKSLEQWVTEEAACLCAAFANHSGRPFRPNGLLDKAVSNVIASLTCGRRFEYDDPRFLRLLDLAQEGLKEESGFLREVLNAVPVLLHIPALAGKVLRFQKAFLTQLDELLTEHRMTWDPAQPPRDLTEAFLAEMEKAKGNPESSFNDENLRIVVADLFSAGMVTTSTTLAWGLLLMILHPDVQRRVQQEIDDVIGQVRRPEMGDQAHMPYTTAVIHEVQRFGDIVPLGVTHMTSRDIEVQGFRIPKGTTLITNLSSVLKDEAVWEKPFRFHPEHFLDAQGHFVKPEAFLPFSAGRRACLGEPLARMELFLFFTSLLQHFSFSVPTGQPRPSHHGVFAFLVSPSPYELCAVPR
Chain of CYP3A4 (P08684 whole entry): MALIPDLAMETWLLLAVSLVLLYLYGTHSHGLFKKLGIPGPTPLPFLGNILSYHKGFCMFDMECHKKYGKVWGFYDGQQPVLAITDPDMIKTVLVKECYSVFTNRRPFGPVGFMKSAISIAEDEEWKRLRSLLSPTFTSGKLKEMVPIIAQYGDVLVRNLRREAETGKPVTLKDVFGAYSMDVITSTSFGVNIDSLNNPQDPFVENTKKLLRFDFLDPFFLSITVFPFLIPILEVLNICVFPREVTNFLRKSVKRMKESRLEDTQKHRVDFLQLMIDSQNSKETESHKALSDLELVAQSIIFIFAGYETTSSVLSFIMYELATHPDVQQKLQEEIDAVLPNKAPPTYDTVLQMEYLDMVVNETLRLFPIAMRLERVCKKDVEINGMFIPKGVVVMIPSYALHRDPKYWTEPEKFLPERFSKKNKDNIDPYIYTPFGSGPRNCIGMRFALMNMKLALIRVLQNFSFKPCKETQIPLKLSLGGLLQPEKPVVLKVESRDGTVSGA

SMILES | plasma protein binding, % bound (plasma proteins [1]; literature value ref Christiansen et al., 2009) | metabolism by CYP3A4 (CYP3A4) | Parent remain (%) [2, 4] | Parent remain (%) [2, 5] | Parent remain (%) [2, 6] | Parent remain (%) [2, 7] | metabolism by CYP2D6 (CYP2D6; supersomes, at 60 min) | RED Protein Binding, Binding (%) (plasma proteins [3]) | metabolism by CYP1A2 (CYP1A2) | plasma protein binding, % bound (plasma proteins [1]; literature value ref Van Harten 1993) | Parent remain (%) [2, 8] | Parent remain (%) ([2]; 4 h, 10 µM each, monitored drug + Erl + Los) | Parent remain (%) [2, 9] | Parent remain (%) ([2]; 4 h, 10 µM each, monitored drug + Gef + Los) | plasma protein binding, % bound (plasma proteins [1]; literature value ref Li et al., 2006) | drug remaining (CYP2D6; CYP2D6 supersomes) | plasma protein binding, % bound (plasma proteins [1]; literature value ref Sica et al., 2005) | Parent remain (%) ([2]; 4 h, 10 µM each, monitored drug + Erl + Flx) | Parent remain (%) ([2]; 4 h, 10 µM each, monitored drug + Gef + Flx)
C#Cc1cccc(Nc2ncnc3cc(OCCOC)c(OCCOC)cc23)c1 [Erlotinib] | 95% | significantly metabolized | 75 ± 3% | 86 ± 9% | 63 ± 2% | 62 ± 13% | significantly metabolized | 96 ± 0% | significantly metabolized |  |  |  |  |  |  |  |  |  | 
CNCCC(Oc1ccc(C(F)(F)F)cc1)c1ccccc1 (stereo not drawn) [Fluoxetine] |  |  |  |  |  | 75 ± 9% |  | 95 ± 1% |  | 95% | 102 ± 1% | 121 ± 3% | 87 ± 10% | 122 ± 16% |  |  |  |  | 
COc1cc2ncnc(Nc3ccc(F)c(Cl)c3)c2cc1OCCCN1CCOCC1 [Gefitinib] |  |  | 72 ± 10% | 96 ± 4% | 58 ± 3% | 65 ± 2% |  | > 95% |  |  |  |  |  |  | ~ 97% | less than 80% |  |  | 
CCCCc1nc(Cl)c(CO)n1Cc1ccc(-c2ccccc2-c2nn[nH]n2)cc1 [Losartan] |  |  |  |  |  | 77 ± 6% |  | > 95% |  |  | 89 ± 10% |  | 89 ± 4% |  |  |  | greater than 98% | 99 ± 4% | 112 ± 13%
